Results published in article PMC6348446 (Journal of Medicinal Chemistry, 2018).

Legend:
A-204 cells = assay: Cell viability/proliferation (cellular ATP, CellTiterGlo) in A-204; format: cell-based; details: Homo sapiens, A204; A-204 (printed A-402); read-out: EC50 (cytotoxicity, cell viability)
Experimental: A-204 cells (1 × 10^3) were seeded per well of 384-well plates. After overnight incubation, compounds were added to the cells at logarithmic dose series using the HP digital dispenser D300 (Tecan), normalizing for added DMSO. 1 day and 8 days after seeding cellular ATP content was measured using CellTiterGlo (Promega). Measurements after 8 days were divided by the measurement after 1 day (i.e., the T0 plate) to derive fold proliferation. Data were analyzed with GraphPad Prism software to obtain EC50 values.

[1] = Intrinsic clearance in mouse liver microsomes; format: in vitro ADME; details: 0.5 µM compound
Experimental: (§1) compounds against known CHI values. The CHI value of test compounds was then calculated according to their retention time.
(§2) Test compounds were prepared as 0.25 mM solutions in 50:50 acetonitrile:water and analysed by reversed-phase HPLC-UV (wavelength 254 nm) using a ACE Excel 3 SuperC18, 3 µm, 50 x 2.1 mm column with a gradient of aqueous phase (10 mM ammonium acetate, pH 7.4) and mobile phase (acetonitrile).
(§3) Intrinsic clearance (Cli) experiments
(§4) Test compound (0.5 µM) was incubated with female CD1 mouse or human (mixed gender) liver microsomes (Xenotech LLCTM; 0.5 mg/mL 50mM potassium phosphate buffer, pH7.4) and the reaction initiated with addition of excess NADPH (8 mg/mL 50 mM potassium phosphate buffer, pH7.4). Immediately, at time zero, then at 3, 6, 9, 15 and 30 minutes an aliquot (50 µL) of the incubation mixture was removed and mixed with acetonitrile (100 µL) to stop the reaction. Internal standard was added to all samples, the samples centrifuged to sediment precipitated protein and the plates then sealed prior to […] analysis using […]
(§5) a Xevo TQ-S Micro (Waters corporation, USA).
(§6) XLfit (IDBS, UK) was used to calculate the exponential decay and consequently the rate constant (k) from the ratio of peak area of test compound to internal standard at each timepoint. The rate of intrinsic clearance (CLi) of each test compound was then calculated using the following calculation: […]

[2] = Intrinsic clearance in human liver microsomes; format: in vitro ADME; details: 0.5 µM compound
Experimental: as §1, §2, §3, §4, §5, §6

Row | Microsomal stability (intrinsic clearance), Mouse [1] | Microsomal stability (intrinsic clearance), Human [2] | Structure (SMILES) | EC50 (A-204 cells)
1 |  |  | COc1cc(-c2cn(C)c(=O)c3cnccc23)cc(OC)c1CN1CCN(CCCCCOc2cc(-c3scnc3C)ccc2CNC(=O)[C@@H]2C[C@@H](O)CN2C(=O)[C@@H](NC(=O)C2(F)CC2)C(C)(C)C)CC1 [Compound 51, (2S,4R)-N-(2-((5-(4-(2,6-Dimethoxy-4-(2-methyl-1-oxo-1,2-dihydro-2,7-naphthyridin-4-yl)benzyl)piperazin-1-yl)pentyl)oxy)-4-(4-methylthiazol-5-yl)benzyl)-1-((S)-2-(1-fluorocyclopropane-1-carboxamido)-3,3-dimethylbutanoyl)-4-hydroxypyrrolidine-2-carboxamide] | 40 nM
2 | 2.4 mL/min/g liver | 8.1 mL/min/g liver | COc1cc(-c2cn(C)c(=O)c3cnccc23)cc(OC)c1CN1CCN(CCCCCOc2cc(-c3scnc3C)ccc2CNC(=O)[C@@H]2C[C@H](O)CN2C(=O)[C@@H](NC(=O)C2(F)CC2)C(C)(C)C)CC1 [cisVZ185] | 
